Measurements as given in ChEMBL document CHEMBL1649397, “Synthesis of a-factor peptide from Saccharomyces cerevisiae and photoactive analogues via Fmoc solid phase methodology” (Bioorg Med Chem, 2011).
Active and inactive are the calls of the source. No cut-off for these calls is given here. Where a SMILES comes first, the peptide text is derived from it. The star is where a group is joined. X3 = C/C(=C/C*)CC/C=C(\C)COCc1cccc(C(=O)c2ccccc2)c1; X2 = C/C(=C/C*)COCc1cccc(C(=O)c2ccccc2)c1; X1 = CC(C)=CCC/C(C)=C/CC/C(C)=C\C*

Columns and labels:
Format in all cases: functional, organism-based
[1] = tested on: Saccharomyces cerevisiae; test: Growth arrest against Saccharomyces cerevisiae LM102 assessed as zone of inhibition after overnight incubation
[2] = tested on: Saccharomyces cerevisiae; test: Growth arrest against Saccharomyces cerevisiae RC757 assessed as zone of inhibition after overnight incubation
[3] = tested on: Saccharomyces cerevisiae; test: Growth arrest against Saccharomyces cerevisiae RC757 assessed as zone of inhibition at 0.25 ng after overnight incubation
[4] = tested on: Saccharomyces cerevisiae; test: Growth arrest against Saccharomyces cerevisiae RC757 assessed as zone of inhibition at 0.50 ng after overnight incubation

CC[C@H](C)[C@H](NC(=O)[C@@H](NC(=O)[C@@H](N)Cc1ccc(O)cc1)[C@@H](C)CC)C(=O)N[C@@H](CCCCN)C(=O)NCC(=O)N[C@H](C(=O)N[C@@H](Cc1ccccc1)C(=O)N[C@@H](Cc1c[nH]c2ccccc12)C(=O)N[C@@H](CC(=O)O)C(=O)N1CCC[C@H]1C(=O)N[C@@H](C)C(=O)N[C@@H](CSC/C=C(/C)CC/C=C(\C)CCC=C(C)C)C(=O)OC)C(C)C (H-YIIKGVFWDPAC(X1)-OMe)
inhibition zone (IZ) [1]: inactive
inhibition zone (IZ) [2]: Active

CC[C@H](C)[C@H](NC(=O)[C@@H](NC(=O)[C@@H](N)Cc1ccc(O)cc1)[C@@H](C)CC)C(=O)N[C@@H](CCCCN)C(=O)NCC(=O)N[C@H](C(=O)N[C@@H](Cc1ccccc1)C(=O)N[C@@H](Cc1c[nH]c2ccccc12)C(=O)N[C@@H](CC(=O)O)C(=O)N1CCC[C@H]1C(=O)N[C@@H](C)C(=O)N[C@@H](CSC/C=C(/C)COCc1cccc(C(=O)c2ccccc2)c1)C(=O)OC)C(C)C (H-YIIKGVFWDPAC(X2)-OMe)
inhibition zone (IZ) [3]: Active

CC[C@H](C)[C@H](NC(=O)[C@@H](NC(=O)[C@@H](N)Cc1ccc(O)cc1)[C@@H](C)CC)C(=O)N[C@@H](CCCCN)C(=O)NCC(=O)N[C@H](C(=O)N[C@@H](Cc1ccccc1)C(=O)N[C@@H](Cc1c[nH]c2ccccc12)C(=O)N[C@@H](CC(=O)O)C(=O)N1CCC[C@H]1C(=O)N[C@@H](C)C(=O)N[C@@H](CSC/C=C(/C)CC/C=C(\C)COCc1cccc(C(=O)c2ccccc2)c1)C(=O)OC)C(C)C (H-YIIKGVFWDPAC(X3)-OMe)
inhibition zone (IZ) [4]: Active
